Data: ChEMBL document CHEMBL5257153, “Oxazolidinones as versatile scaffolds in medicinal chemistry” (RSC Med Chem, 2023)
Values after ≈ are worked out from the molar mass of the structure shown.

Experiments:
HeLa = experiment: Anticancer activity against human HeLa cells assessed as cell growth inhibition incubated for 72 hrs by MTT assay; assay type: functional, cell-based
MCF7 = experiment: Anticancer activity against human MCF7 cells assessed as cell growth inhibition incubated for 72 hrs by MTT assay; assay type: functional, cell-based; conditions: MCF7, 72 h
[1] = system: Mycobacterium tuberculosis; experiment: Antimycobacterial activity against Mycobacterium tuberculosis H37Rv strain assessed as bacterial growth inhibition incubated for 18 to 24 hrs; assay type: functional; conditions: time 18-24 hrs
L02 [2] = experiment: Anticancer activity against human L02 cells assessed as cell growth inhibition incubated for 48 hrs by MTT assay; assay type: functional, cell-based; conditions: L02, 48 h
HEK293 = experiment: Anticancer activity against HEK293 cells assessed as cell growth inhibition incubated for 48 hrs by MTT assay; assay type: functional, cell-based; conditions: Homo sapiens, HEK293, 48 h
Staphylococcus aureus [3] = experiment: Antibacterial activity against methicillin resistant Staphylococcus aureus assessed as bacterial growth inhibition incubated for 18 hrs; assay type: functional
Staphylococcus aureus [4] = experiment: Antibacterial activity against methicillin sensitive Staphylococcus aureus assessed as bacterial growth inhibition incubated for 18 hrs; assay type: functional
[5] = system: Mycobacterium tuberculosis; experiment: Antimycobacterial activity against Mycobacterium tuberculosis H37Rv strain assessed as bacterial growth inhibition by Microplate amar blue assay; assay type: functional
TF-1 = experiment: Anticancer activity against human TF-1 cells assessed as cell growth inhibition; assay type: functional, cell-based
HepG2 [6] = experiment: Anticancer activity against human HepG2 assessed as IL-6 induced luciferase activity at 50 uM relative to control; assay type: functional
HepG2 [7] = experiment: Anticancer activity against human HepG2 assessed as IL-6 induced luciferase activity; assay type: functional, cell-based
[8] = system: Mycobacterium tuberculosis; experiment: Antimycobacterial activity against Mycobacterium tuberculosis assessed as bacterial growth inhibition; assay type: functional
Mycobacteroides chelonae = experiment: Antibacterial activity against Mycobacteroides chelonae assessed as bacterial growth inhibition; assay type: functional
[9] = system: Mycolicibacterium fortuitum; experiment: Antibacterial activity against Mycobacterium fortuitum assessed as bacterial growth inhibition; assay type: functional
Mycobacterium kansasii = experiment: Antibacterial activity against Mycobacterium kansasii assessed as bacterial growth inhibition; assay type: functional
[10] = molecular target: T1, Acyl-CoA (8-3)-desaturase (Homo sapiens, UniProt O60427); experiment: Inhibition of human Delta 5 desaturase (unknown origin) expressed in human HepG2 cells; assay type: cell-based
Target sequence in this assay (O60427 whole entry): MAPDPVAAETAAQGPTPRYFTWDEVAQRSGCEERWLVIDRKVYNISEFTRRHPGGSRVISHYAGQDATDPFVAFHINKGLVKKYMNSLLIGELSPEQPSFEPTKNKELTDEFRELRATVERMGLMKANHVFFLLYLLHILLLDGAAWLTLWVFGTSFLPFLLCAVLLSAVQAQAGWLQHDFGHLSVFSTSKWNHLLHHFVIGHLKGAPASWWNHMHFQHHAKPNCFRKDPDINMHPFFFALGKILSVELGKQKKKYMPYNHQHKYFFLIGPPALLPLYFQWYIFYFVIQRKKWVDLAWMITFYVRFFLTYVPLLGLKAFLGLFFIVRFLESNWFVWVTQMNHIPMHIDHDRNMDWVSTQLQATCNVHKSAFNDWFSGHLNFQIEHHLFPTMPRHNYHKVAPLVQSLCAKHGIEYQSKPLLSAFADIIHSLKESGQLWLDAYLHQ

[11] = molecular target: T1, Acyl-CoA (8-3)-desaturase; experiment: In vivo inhibition of human Delta 5 desaturase in atherosclerosis mouse model at 3 mg/kg, po relative to control; assay type: organism-based
Target sequence in this assay (O60427 whole entry, looked up): as the sequence (O60427 whole entry) above

[12] = molecular target: T1, Acyl-CoA (8-3)-desaturase; experiment: In vivo inhibition of human Delta 5 desaturase in C57BL/6J mouse at 3 mg/kg, po relative to control; assay type: organism-based
Target sequence in this assay (O60427 whole entry, looked up): as the sequence (O60427 whole entry) above

[13] = Toxicity in mouse; assay type: organism-based; conditions: in vivo
Rattus norvegicus = organism: Rattus norvegicus; experiment: Anticonvulsant activity in rat; assay type: functional
Mus musculus = organism: Mus musculus; experiment: Anticonvulsant activity in mouse; assay type: functional
[14] = system: Mycobacterium tuberculosis; experiment: Antimycobacterial activity against Mycobacterium tuberculosis H37Rv strain assessed as bacterial growth inhibition incubated for 48 hrs by Microplate amar blue assay; assay type: functional
[15] = molecular target: Aldo-keto reductase family 1 member B1 (Homo sapiens, UniProt P15121); experiment: Inhibition of […] (unknown origin)
Enterococcus faecium = experiment: Antibacterial activity against Linezolid resistant Enterococcus faecium assessed as bacterial growth inhibition incubated for 24 hrs; assay type: functional
[16] = AUClast in Sprague-Dawley rat at 15 mg/kg, iv by HPLCLC-MS/MS analysis; assay type: ADME, organism-based; parameters: dose 15 mg/kg, route iv; conditions: in vivo
Enterococcus faecalis = experiment: Antibacterial activity against Linezolid resistant Enterococcus faecalis assessed as bacterial growth inhibition incubated for 24 hrs; assay type: functional
Staphylococcus aureus [17] = experiment: Antibacterial activity against Staphylococcus aureus assessed as bacterial growth inhibition incubated for 24 hrs; assay type: functional
Kallikrein-6 = Kallikrein-6 (Homo sapiens, UniProt Q92876); experiment: Inhibition of KLK6 (unknown origin)
Alpha glucosidase = Alpha glucosidase (Homo sapiens, UniProt O43451+P10253+P14410+Q2M2H8); experiment: Inhibition of human alpha glucosidase; assay type: protein assay
Acetylcholinesterase = Acetylcholinesterase (Homo sapiens, UniProt P22303); experiment: Inhibition of human AchE
Carbonic anhydrase 1 = Carbonic anhydrase 1 (Homo sapiens, UniProt P00915); experiment: Inhibition of human CA1
Carbonic anhydrase 2 = Carbonic anhydrase 2 (Homo sapiens, UniProt P00918); experiment: Inhibition of human CA2
Clostridioides difficile [18] = experiment: Antibacterial activity against Clostridium difficile NAP1/027/BI-type strain 2009155 assessed as bacterial growth inhibition incubated for 48 hrs by agar dilution method; assay type: functional
Clostridioides difficile [19] = experiment: In vivo Antibacterial activity against Clostridium difficile infected in hamster assessed as survival at 50 mg/kg, sc relative to control; assay type: functional
Clostridioides difficile [20] = experiment: Antibacterial activity against Clostridium difficile ATCC 43596 strain assessed as bacterial growth inhibition incubated for 48 hrs by agar dilution method; assay type: functional
Clostridioides difficile [21] = experiment: Antibacterial activity against Clostridium difficile NCTC 11223 strain assessed as bacterial growth inhibition incubated for 48 hrs by agar dilution method; assay type: functional
Clostridioides difficile [22] = experiment: Antibacterial activity against Clostridium difficile ATCC 43255 strain assessed as bacterial growth inhibition incubated for 48 hrs by agar dilution method; assay type: functional
Clostridioides difficile [23] = experiment: Antibacterial activity against Clostridium difficile 2004118 strain assessed as bacterial growth inhibition incubated for 48 hrs by agar dilution method; assay type: functional
[24] = Metabolic stability in human microsomes assessed as half life; assay type: ADME, Microsome
[25] = Metabolic stability in mouse microsomes assessed as half life; assay type: ADME, Microsome
[26] = Metabolic stability in mouse microsomes assessed as intrinsic clearance; assay type: ADME, Microsome
[27] = Metabolic stability in human microsomes assessed as intrinsic clearance; assay type: ADME, Microsome
[28] = Inhibition of human LTC4
[29] = Inhibition of human LTB4
Metaphire posthuma [30] = experiment: Anti-helmintic activity at Metaphire posthuma assessed as paralysis induction time; assay type: functional
Metaphire posthuma [31] = experiment: Anti-helmintic activity at Metaphire posthuma assessed as time of survival; assay type: functional
CNE-2 = experiment: Anticancer activity against human CNE-2 cells assessed as cell growth inhibition incubated for 48 hrs by MTT assay; assay type: functional, cell-based; conditions: CNE-2, 48 h
MGC-803 = experiment: Anticancer activity against human MGC-803 cells assessed as cell growth inhibition incubated for 48 hrs by MTT assay; assay type: functional, cell-based; conditions: MGC-803, 48 h
SK-OV-3 = experiment: Anticancer activity against human SK-OV-3 cells assessed as cell growth inhibition incubated for 48 hrs by MTT assay; assay type: functional, cell-based; conditions: SK-OV-3, 48 h
L02 [32] = experiment: Cytotoxicity against human L02 cells assessed as cell growth inhibition incubated for 48 hrs by MTT assay; assay type: functional, cell-based; conditions: L02, 48 h
NCI-H460 = experiment: Anticancer activity against human NCI-H460 cells assessed as cell growth inhibition incubated for 48 hrs by MTT assay; assay type: functional, cell-based; conditions: NCI-H460, 48 h

Chain of Acetylcholinesterase (P22303 whole entry): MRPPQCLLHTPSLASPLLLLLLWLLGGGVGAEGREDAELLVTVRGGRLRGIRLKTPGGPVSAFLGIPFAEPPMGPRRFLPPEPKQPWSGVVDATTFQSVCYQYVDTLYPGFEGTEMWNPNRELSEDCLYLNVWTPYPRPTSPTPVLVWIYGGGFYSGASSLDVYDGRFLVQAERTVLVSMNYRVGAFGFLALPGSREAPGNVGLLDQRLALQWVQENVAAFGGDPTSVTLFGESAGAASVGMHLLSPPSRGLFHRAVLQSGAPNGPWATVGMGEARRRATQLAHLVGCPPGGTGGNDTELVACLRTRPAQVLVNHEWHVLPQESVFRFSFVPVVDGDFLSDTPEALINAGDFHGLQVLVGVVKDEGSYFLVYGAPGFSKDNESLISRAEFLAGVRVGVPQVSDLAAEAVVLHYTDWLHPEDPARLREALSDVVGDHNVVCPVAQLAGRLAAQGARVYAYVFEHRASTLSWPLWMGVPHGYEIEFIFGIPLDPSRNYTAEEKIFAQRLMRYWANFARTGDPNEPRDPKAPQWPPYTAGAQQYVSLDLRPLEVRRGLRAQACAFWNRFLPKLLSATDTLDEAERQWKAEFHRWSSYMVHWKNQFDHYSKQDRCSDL
Chain of Carbonic anhydrase 1 (P00915 whole entry): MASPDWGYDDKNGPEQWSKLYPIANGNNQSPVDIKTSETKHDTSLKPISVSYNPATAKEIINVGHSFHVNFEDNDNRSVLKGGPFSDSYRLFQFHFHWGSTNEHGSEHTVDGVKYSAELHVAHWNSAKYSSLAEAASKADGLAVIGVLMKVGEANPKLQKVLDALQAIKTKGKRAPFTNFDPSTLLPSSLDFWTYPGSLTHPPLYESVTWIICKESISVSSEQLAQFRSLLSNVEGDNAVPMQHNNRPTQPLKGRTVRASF

Molecule `CCN(CC)C(=O)/C=C1/OC(=O)N(Cc2ccccc2)C1(C)C` has an IC50 (HeLa) of 17.7 µM and an IC50 (MCF7) of 31.1 µM.
`O=C(NCC(=O)N1CCN(c2ccc(N3C[C@H](Cn4ccnn4)OC3=O)cc2F)CC1)c1ccc([N+](=O)[O-])o1` gave an MIC90 [1] of 0.9 µM (≈ 0.488 µg/mL).
`CC(=O)NC[C@H]1CN(c2ccc(-n3cc(-c4ccccn4)cn3)c(F)c2)C(=O)O1` showed an IC50 (L02 [2]) of 50 µM, an IC50 (HEK293) greater than 25 µM and an MIC (Staphylococcus aureus [3]) of 0.5 µg/mL (≈ 1.26 µM). The MIC (Staphylococcus aureus [4]) was 1 µg/mL (≈ 2.53 µM).
Work on `CC(=O)NC[C@H]1CN(c2ccc(N3C[C@H]4C[C@@H](O)C[C@H]4C3)c(F)c2)C(=O)O1` yielded an MIC90 [5] of 0.6 µM.
With `C=C(CCCCC)[C@@H](O)[C@H](C)C(=O)N1C(=O)OC[C@@H]1C(C)C` the IC50 (TF-1) was 7.5 µM, the inhibition at 50 µM (HepG2 [6]) was 90% and the IC50 (HepG2 [7]) was 5.9 µM.
`CC(=O)NC[C@H]1CN(c2ccc(N3CCN(c4ccc5nccn5n4)CC3)c(F)c2)C(=O)O1` showed an MIC90 [8] of 1.1 µM (≈ 0.499 µg/mL), an MIC90 (Mycobacteroides chelonae) of 8 µM (≈ 3.63 µg/mL) and an MIC90 [9] of 8 µM (≈ 3.63 µg/mL). The MIC90 (Mycobacterium kansasii) was 1 µM (≈ 0.453 µg/mL).
`C[C@@H]1[C@@H](c2ccc(F)cc2)OC(=O)N1c1cc(C#N)cc(C#N)c1` gave an IC50 [10] of 0.0015 µM, an inhibition [11] of 66% and an inhibition [12] of 74%.
`O=C(NCC(=O)N1CCN(c2ccc(N3C[C@H](Cn4ccnn4)OC3=O)cc2F)CC1)c1cccs1` showed a TD50 [13] greater than 500 mg/kg, an ED50 (Rattus norvegicus) of 34.5 mg/kg and an ED50 (Mus musculus) of 90 mg/kg.
Work on `O=C1O[C@@H](Cn2ccnn2)CN1c1ccc(N2CCOCC2)c(F)c1` yielded an MIC90 [14] of 1.3 µM (≈ 0.452 µg/mL).
Molecule `COc1ccc(C2CC3(CN(CC(=O)O)C(=O)O3)c3cc(Br)ccc3O2)cc1` (centres undefined) has an IC50 [15] of 0.65 µM.
With `O=C(CO)N1CCN(c2ccc(-c3ccc(N4C[C@H](Cn5ccnn5)OC4=O)cc3F)cn2)C=N1` the MIC (Enterococcus faecium) was less than 2 µg/mL, the AUClast [16] was 85 mg/h/L and the MIC (Enterococcus faecalis) was less than 2 µg/mL. For the same molecule, the MIC (Staphylococcus aureus [17]) was less than 2 µg/mL.
`COc1ccccc1-c1ccc([C@H](C)Nc2cncc(N3C(=O)OC[C@@H]3C(C)C)n2)cc1` showed an IC50 (Kallikrein-6) of 0.00251 µM.
Work on `CCOc1nc(-c2ccc(N3C[C@H](CNC(C)=O)OC3=O)cc2F)cs1` yielded an MIC90 [8] of 2.6 µM (≈ 0.986 µg/mL).
`CC(=O)NC[C@H]1CN(c2ccc(-c3ccc(-c4csc(N)n4)cc3)c(F)c2)C(=O)O1` gave an MIC90 [8] of 0.9 µM (≈ 0.384 µg/mL).
In the case of `CC1(C)O[C@@H]2[C@@H](O)[C@H]3NC(=O)O[C@H]3C[C@@H]2O1`, the IC50 (Alpha glucosidase) is reported as 30.5 µM, the IC50 (Acetylcholinesterase) is reported as 58.7 µM and the IC50 (Carbonic anhydrase 1) is reported as 45.6 µM. The IC50 (Carbonic anhydrase 2) was 24.8 µM.
`CC(=O)NC[C@H]1CN(c2ccc(-c3cnc(-n4cncn4)nc3)c(F)c2)C(=O)O1` showed an MIC90 (Clostridioides difficile [18]) of 0.25 µg/mL (≈ 0.629 µM), a survival at 50 mg/kg (Clostridioides difficile [19]) of 100% and an MIC90 (Clostridioides difficile [20]) of 0.25 µg/mL (≈ 0.629 µM). For the same molecule, the MIC90 (Clostridioides difficile [21]) was 0.25 µg/mL (≈ 0.629 µM), the MIC90 (Clostridioides difficile [22]) was 0.25 µg/mL (≈ 0.629 µM) and the MIC90 (Clostridioides difficile [23]) was 0.25 µg/mL (≈ 0.629 µM).
`CC[C@H](NC(=O)[C@H]1CN(c2ccc(C(=N)N)cc2)C(=O)O1)c1cccc2ccccc12` gave a half-life [24] greater than 3 h, a half-life [25] greater than 3 h and a CLH [26] of 2.4 mL/min/g. The CLH [27] was 3.1 mL/min/g.
`CC(C)C[C@@H](NC(=O)OC1c2ccccc2-c2ccccc21)C(=O)N[C@@H](Cc1ccccc1)[C@H]1CN(c2ccc(N3CCOCC3)c(F)c2)C(=O)O1` showed an MIC90 [8] of 2.6 µM (≈ 1.84 µg/mL).
Molecule `COc1cc(COc2ccccc2C2(C)CN(CC(=O)O)C(=O)O2)cc(OC)c1OC` (centres undefined) has an IC50 [15] of 3.19 µM.
Molecule `CCCCCCC(=O)N(O)C[C@H]1CN(c2ccc(N3CCOCC3)c(F)c2)C(=O)O1` has an IC50 [28] of 0.9 µM and an IC50 [29] of 0.7 µM.
Molecule `O=C(OC[C@H]1CN(c2ccc(N3CCOCC3)nc2)C(=O)O1)C1CCCCC1` has a Time (Metaphire posthuma [30]) of 3.6 min and a Survival (Metaphire posthuma [31]) of 8.1 min.
`CN[C@H](CC(C)C)C(=O)N[C@H]1C(=O)N[C@@H](CC(N)=O)C(=O)N[C@H]2C(=O)N[C@H]3C(=O)N[C@H](C(=O)N[C@H](C(=O)O)c4cc(O)cc(O)c4-c4cc3ccc4O)[C@H](O)c3ccc(c(Cl)c3)Oc3cc2cc(c3O[C@@H]2O[C@H](CO)[C@@H](O)[C@H](O)[C@H]2O[C@H]2C[C@](C)(N)[C@H](O)[C@H](C)O2)Oc2ccc(cc2Cl)[C@H]1O` [VANCOMYCIN] showed a survival at 50 mg/kg (Clostridioides difficile [19]) of 50%.
In the case of `O=C(COP(=O)(O)O)N1CCN(c2ccc(-c3ccc(N4C[C@H](Cn5ccnn5)OC4=O)cc3F)cn2)C=N1`, the AUClast [16] is reported as 5.08 mg/h/L.
`O=C1CC2CN(c3ccc(N4C[C@H](Cn5ccnn5)OC4=O)cc3F)CC2C1` (some centres undefined) showed an MIC90 [5] of 1.2 µM.
With `Cc1ncc([N+](=O)[O-])n1CCO` [METRONIDAZOLE] the survival at 50 mg/kg (Clostridioides difficile [19]) was 0%.
For `CC(C)c1ccc2c(c1)CCC1[C@](C)(C(=O)OCC3CN(c4ccc(F)cc4)C(=O)O3)CCC[C@]21C` (some centres undefined), the IC50 (CNE-2) was 3.82 µM, the IC50 (MGC-803) was 3.82 µM and the IC50 (SK-OV-3) was 3.82 µM. The IC50 (L02 [32]) was greater than 100 µM and the IC50 (NCI-H460) was 3.82 µM.
